The record followed here is US3939268A, “2,4-Diamino substituted pyridol(3,2-d)pyrimidine as antithrombotic agents” (Boehringer Ingelheim GmbH, priority 1971, dated 1976).

One data set can be described thus: acute toxicity (LD50). The note with it: mouse, in vivo, po, mice, observation time 14 days; for mortality at 336 h: p.o., printed with LD50 >250 mg/kg, read-out: animals died. As for the experimental part: 3. The acute toxicity of some of the compounds for orientation (observationtime : 14 days) was determined on mice, or the LD50 was calculated from the percentage of animals which died after different doses within the observation time [see J. Pharmacol. exper. Therap. 96, 99(1949)].

Data set [1] has as its system thrombocyte aggregation / platelet stickiness (human blood). Kind of data set: retention test according to Morris (reduction in platelet stickiness, glass beads). The note with it: 5×10^-5 mol/liter, 10 minutes at 37°C, average of 4 - 6 determinations; for inhibition at 50 µM: Platelet, 10 min. The data set is classed as cell-based. The procedure: The inhibiting effect upon the platelet stickiness was determined by means of the so-called retention test according to Morris [see E. Deutsch et al, 1.Internationales Symposium uber Stoffwechsel and Membranpermeabilitat von Erythrocyten and Thrombocyten, Vienna, Austria (1969); Georg Thieme Verlag, Stuttgart, Germany]. […] To determine the inhibiting action of the test compound upon thrombocyte aggregation, 1 ml of human blood is pipetted into small test tubes, and the test compound is added to a final concentration of 5×10^^-5 mol/liter. The tubes are incubated for 10 minutes at 37°C. 1 gm of glass beads (glass beads for gas-chromatography) is added to half of the tubes. Finally the closed tubes are attached to a vertical wheel and rotated for 1 minute. By this means good contact is obtained between the glass beads and the blood. The tubes are then allowed to stand at room temperature for another hour, after which time a satisfactory sedimentation of erythrocytes has taken place. 0.01 ml of the supernatant plasma is removed, diluted to 1 : 8,000 with celloscope solution, and the platelet count is read in the celloscope. The percent reduction in the stickiness due to the presence of the substance (compared to tubes without glass beads) is measured and the average of 4 - 6 determinations is taken.

In a further data set the test system is bleeding time. Kind of data set: prolongation of the bleeding time (method of Duke). Type of data set: in vivo. The settings on record: non-anesthetized mice, 10 mgm/kg per os, after one hour, compared to untreated animals; for change in vivo at 10 mg/kg: Mus musculus, po, 1 h. From the text:
The prolonging effect upon the bleeding time was ascertained by the method of Duke, J. Amer. Med. Assoc. 15, 1185 (1910). 2. To determine the bleeding time, 10 mgm/kg of the test compound is given per os to non-anesthetized mice. After one hour, about 0.5 mm is cut off from the tail of each animal. The exuded blood is soaked up with filter paper every 30 seconds. The number of drops of blood so obtained is used as a measure for the bleeding time compared to untreated animals (5 animals/test).

Data set [2] has as its system anesthetized cats and dogs. Kind of data set: hypotensive tests (method of Eckenhoff). Type of data set: in vivo. The settings on record: in words, warm-blooded animals, such as mice. The procedure: The hypotensive tests were performed on anesthetized cats and dogs by the method of Eckenhoff, Amer. J. Physiol. 148, 582 (1947).

Where a name gives a salt, the structure may show the parent alone.

As usually defined, the LD50 is the dose expected to kill half of the subjects tested. Read a low LD50 as a more toxic substance. In general, inhibition refers to the relative decrease from the control value, in per cent. `O=C(O)/C=C\C(=O)O.c1cnc2c(N3CCSCC3)nc(N3CCNCC3)nc2c1` [A, 2-piperazino-4-thiomorpholinopyrido[3,2-d]pyrimidine maleate]: the median lethal dose (LD50) at 336 h in “acute toxicity (LD50)” came to 413 mg/kg. The compound further had an inhibition at 50 µM in data set [1] of 99%. The compound also showed a change in vivo at 10 mg/kg in the data set with bleeding time of 171%.

Take `CN1CCN(c2nc(N3CCSCC3)c3ncccc3n2)CC1` [B, 2-(n'-methyl-piperazino)-4-thiomorpholino-pyrido[3,2-d] pyrimidine dihydrochloride]: in data set [1], the inhibition at 50 µM came out at 53%. In the data set with bleeding time, the change in vivo at 10 mg/kg was 118%.

`Cl.Cl.[O-][S+]1CCN(c2nc(N3CCNCC3)nc3cccnc23)CC1` [C, 2-piperazino-4-(1'-oxido-thiomorpholino)-pyrido[3,2-d] pyrimidine dihydrochloride] yielded an LD50 at 336 h in the data set “acute toxicity (LD50)” of 872 mg/kg. Moreover, in data set [1], 50 µM produced 99% inhibition. In data set [2], the hypotensive activity entry was “particularly pronounced”.

In data set [1], `CN1CCN(c2nc(N3CC[S+]([O-])CC3)c3ncccc3n2)CC1` [D, 2-(n'-methyl-piperazino)-4-(1'-oxido-thiomorpholino)-pyrido[3,2-d]pyrimidine dihydrochloride] had an inhibition at 50 µM of 87%. In the data set on bleeding time, this compound had a change in vivo at 10 mg/kg of 88%.

As to `[O-][S+]1CCN(c2nc(N(CCCO)CCCO)nc3cccnc23)CC1` [E, 2-(dipropanol-amino)-4-(1'-oxido-thiomorpholino)-pyrido[3,2-d]pyrimidine hydrochloride], the inhibition at 50 µM in data set [1] amounted to 88%. The change in vivo at 10 mg/kg with bleeding time amounted to 40%.

In the case of `c1cnc2c(N3CCNCC3)nc(N3CCSCC3)nc2c1` [Example 27, 2-Thiomorpholino-4-piperazino-pyrido[3,2-d]pyrimidine], the hypotensive activity result in data set [2] is “particularly pronounced”.

As for `Cl.[O-][S+]1CCN(c2nc(N(CCO)CCCCCCO)nc3cccnc23)CC1` [F, 2-(n-ethanol-hexanolamino)-4-(1'-oxido-thiomorpholino)-pyrido[3,2-d]pyrimidine hydrochloride], the “Reduction in Stickiness” value in data set [1] (50 µM) was determined as 71%. In the data set with bleeding time, the “Prolongation of Bleeding Time” value is on record as 35%.

In data set [1], `CC1CN(c2nc(N3CCNCC3)nc3cccnc23)CC[S+]1[O-]` (stereo not shown) [G, 2-piperazino-4-(1'-oxido-2'-methyl-thiomorpholino)-pyrido[3,2-d]pyrimidinedihydrochloride] showed an inhibition at 50 µM of 96%. Besides, in the data set with bleeding time, the change in vivo at 10 mg/kg amounted to 55%.

`c1cnc2c(N3CCOCC3)nc(N3CCNCC3)nc2c1` [H, 2-piperazino-4-morpholino-pyrido[3,2-d]pyrimidine dihydrochloride] showed an inhibition at 50 µM in data set [1] of 96%. In the data set on bleeding time, this compound yielded a change in vivo at 10 mg/kg of 55%.

In turn, `CN1CCN(c2nc(N3CCOCC3)c3ncccc3n2)CC1` [I, 2-(n'-methyl-piperazino)-4-morpholino-pyrido[3,2-d] pyrimidine dihydrochloride] gave an inhibition at 50 µM in data set [1] of 70%. The compound further showed a change in vivo at 10 mg/kg with bleeding time of 40%.

Consider `OCCCN(CCCO)c1nc(N2CCOCC2)c2ncccc2n1` [J, 2-(dipropanol-amino)-4-morpholino-pyrido[3,2-d]pyrimidine dihydrochloride], for which, in data set [1], testing at 50 µM gave an inhibition of 50%. This compound came in with a change in vivo at 10 mg/kg in the data set on bleeding time of 45%.

In data set [1], `c1cnc2c(N3CCCCC3)nc(N3CCNCC3)nc2c1` [K, 2-piperazino-4-piperidino-pyrido[3,2-d]pyrimidine dihydrochloride] showed an inhibition at 50 µM of 39%. Moreover, in the data set with bleeding time, the change in vivo at 10 mg/kg came out at 138%.

Turning to `OCCCN(CCCO)c1nc(N2CCCCC2)c2ncccc2n1` [L, 2-(dipropanol-amino)-4-piperidino-pyrido[3,2-d]pyrimidine hydrochloride], the inhibition at 50 µM in data set [1] was found to be 20%. Also, the change in vivo at 10 mg/kg in the data set on bleeding time worked out at 103%.

Consider `O=S1(=O)CCN(c2nc(N3CCNCC3)nc3cccnc23)CC1` [M, 2-piperazino-4-(1',1'-dioxide-thiomorpholino)-pyrido[3,2-d]pyrimidine dihydrochloride], for which, in the data set “acute toxicity (LD50)”, the LD50 at 336 h was above 250 mg/kg and the mortality at 336 h was found to be 0%. This compound gave an inhibition at 50 µM in data set [1] of 88%. In the data set with bleeding time, this compound came in with a change in vivo at 10 mg/kg of 98%.

On to `Cl.Cl.c1cnc2c(N3CCCCC3)nc(N3CCSCC3)nc2c1` [N, 2-thiomorpholino-4-piperidino-pyrido[3,2-d]pyrimidine dihydrochloride], for which, in “acute toxicity (LD50)”, the LD50 at 336 h is above 250 mg/kg and the mortality at 336 h worked out at 0%. This compound also came in with an inhibition at 50 µM in data set [1] of 77%. Moreover, in the data set with bleeding time, the change in vivo at 10 mg/kg was determined as 98%.

With `[O-][S+]1CCN(c2nc(N3CCNCC3)c3ncccc3n2)CC1` [O, 2-(1'-oxido-thiomorpholino)-4-piperazino-pyrido [3,2-d]pyrimidine], in “acute toxicity (LD50)”, the LD50 at 336 h is above 250 mg/kg and the mortality at 336 h amounted to 0%. Also, at 50 µM the inhibition in data set [1] was 98%. Also, in data set [2], the hypotensive activity result is “particularly pronounced”. The compound also registered a change in vivo at 10 mg/kg in the data set on bleeding time of 35%.

Compound `Cc1ccc2nc(N3CCNCC3)nc(N3CC[S+]([O-])CC3)c2n1` [P, 2-piperazino-4-(1'-oxido-thiomorpholino)-6-methylpyrido[3,2-d]pyrimidine d ihydrochloride] yielded an inhibition at 50 µM in data set [1] of 89%. Further, the change in vivo at 10 mg/kg with bleeding time amounted to 98%.

Regarding `Cc1ccc2nc(N3CCSCC3)nc(N3CCNCC3)c2n1` [Q, 2-thiomorpholino-4-piperazino-6-methyl-pyrido[3,2-d] pyrimidine dihydrochloride], at 50 µM the inhibition in data set [1] was 34%.
